Laboratory results: patent publication US7939320B2, “Astaxanthine biosynthesis in eukaryotes” (Peter und Traudl Engelhorn-Stiftung zur Forderung der …, priority 2005, dated 2011)

What was measured:
H. pluvialis WT cells = assay: Growth of H. pluvialis WT cells on OHA plates containing norflurazon; assay type: cell-based, Haematococcus pluvialis; settings: norflurazon 0.7 μM
[1] = system: H. pluvialis phytoene desaturase Leu504Arg mutants; assay: Resistance to norflurazon of Leu504Arg phytoene desaturase mutants compared with wild type; assay type: cell-based, Haematococcus pluvialis; settings: mutants with leucine to arginine substitution at position 504 of PDS
Description: The amino acid substitution according to the invention from leucine to arginine at position 504 of the H. pluvialis PDS protein corresponds to the Leu437Arg substitution in Synechococcus PCC7942 (FIG. 2). For this purpose, the Leu codon “CTG” is replaced by the Arg codon “CGC” by directed mutagenesis. This mutation imparts, to the mutants, the highest known resistance factor to norflurazon. The resistance which has been conferred imparts, to the mutants according to the invention, a resistance to norflurazon which is up to 70-fold higher in comparison with the wild type. In accordance with the invention, norflurazon concentrations of […] are used as selection substance.
A portion of the phytoene desaturase 6.1 kilobases in size was isolated from a genomic DNA library of H. pluvialis and subcloned into the multiple cloning site (MCS) of the pBluescriptSK vector (stratagene) via the restriction cleavage sites XbaI and XhoI. A nucleotide substitution from CTG to CGC was carried out via directed mutagenesis with the primers PDS-Qmut-plu2 CCAAGCAGAAGTACCGCGCCTCCATGGAGGG (SEQ ID NO: 8)and PDS-Qmut-min2 CCCTCCATGGAGGCGCGGTACTTCTGCTTGG (SEQ ID NO: 9); the plasmid was named pPDS-Q2. This nucleotide substitution led to an amino acid substitution from leucine to arginine in codon 504 (FIG. 2), and confers to mutants a resistance to norflurazon.

CNc1cnn(-c2cccc(C(F)(F)F)c2)c(=O)c1Cl [norflurazon]
growth of the WT cells (H. pluvialis WT cells): greatly inhibited
resistance to norflurazon, fold higher in comparison with the wild type [1]: up to 70 fold
